Test results taken from ChEMBL document CHEMBL1151969, “Melanin synthesis inhibitors from Lespedeza floribunda” (J Nat Prod, 2009).

Tests used:
[1] = Cytotoxicity against NHEM cells assessed as cell viability after 72 hrs by WST-8 assay; format: cell-based; conditions: human
[2] = Inhibition of melanin synthesis in NHEM cells assessed as [14C]thiouracil incorporation after 72 hrs by liquid scintillation counting; format: functional, cell-based, Homo sapiens

Compound	Activity [1]	IC50 ([2]; Homo sapiens, NHEM, 72 h)	IC50 ([2]; nhem)
CC(C)=CCc1cc2c(c(CC=C(C)C)c1O)O[C@H](c1ccc(O)cc1)CC2=O	Non-toxic	2.52 µM	
CC(C)=CCc1c(O)c(CC=C(C)C)c2c(c1O)C(=O)C[C@@H](c1cc3c(cc1O)OC(C)(C)C=C3)O2 (stereo in doubt) [EUCHRENONE A3]			1.02 µM
CC(C)=CCc1c(O)c(CC=C(C)C)c2c(c1O)C(=O)C[C@@H](c1cc3c(cc1O)OC(C)(C)C=C3)O2 (stereo in doubt; 45) [EUCHRENONE A3]	Non-toxic	1.51 µM	
CC(C)=CCc1cc([C@@H]2CC(=O)c3c(O)c(CC=C(C)C)c(O)c(CC=C(C)C)c3O2)ccc1O [AMORILIN]		1.21 µM	
CC(C)=CCc1cc([C@@H]2CC(=O)c3c(O)c(CC=C(C)C)c(O)c(CC=C(C)C)c3O2)cc(O)c1O [AMORISIN]		3.6 µM	
OC[C@H]1O[C@@H](Oc2ccc(O)cc2)[C@H](O)[C@@H](O)[C@@H]1O [ARBUTIN]		103 µM	
CC(C)=CCc1cc2c(cc1O)O[C@H](c1ccc(O)cc1)CC2=O [BAVACHIN]	Non-toxic	2.7 µM	
CC(C)=CCc1c(O)c2c(c3c1OC(C)(C)C=C3)O[C@H](c1ccc(O)cc1)CC2=O [CAJAFLAVANONE]	Non-toxic	8.41 µM	
CC(C)=CCc1c(O)ccc2c1O[C@H]1c3ccc(O)c(CC=C(C)C)c3OC[C@@H]21 [ERYBRAEDIN A]	Non-toxic	3.84 µM	
CC(C)=CCc1cc2c(cc1O)OC[C@H]1c3ccc(O)c(CC=C(C)C)c3O[C@@H]21 [ERYBRAEDIN C]	Non-toxic	2 µM	
CC(C)=CCc1c(O)ccc2c1OC[C@H]1c3ccc4c(c3O[C@@H]21)C=CC(C)(C)O4 [ERYBREADIN B]	Non-toxic	2.93 µM	
CC(C)=CCc1cc2c(cc1O)OC[C@H]1c3ccc4c(c3O[C@@H]21)C=CC(C)(C)O4 [FOLITENOL]	Non-toxic	1.84 µM	
O=c1c(-c2ccc(O)cc2)coc2cc(O)cc(O)c12 [GENISTEIN]	Non-toxic	29.2 µM	
Oc1ccc(O)cc1 [HYDROQUINONE]		2.2 µM	
CC(C)=CCc1cc([C@@H]2CC(=O)c3c(O)c(CC=C(C)C)c(O)c(CC=C(C)C)c3O2)c(O)cc1O [LESPEDEZAFLAVANONE H]		7.8 µM	
COc1ccc([C@@H]2CC(=O)c3cc(CC=C(C)C)c(O)c(CC=C(C)C)c3O2)cc1 [LESPEFLORIN A1]	Non-toxic	3.96 µM	
COc1ccc([C@@H]2CC(=O)c3ccc(O)c(CC=C(C)C)c3O2)cc1 [LESPEFLORIN A2]	Non-toxic	3.86 µM	
CC(C)=CCc1cc2c(c(CC=C(C)C)c1O)O[C@H](c1ccc3c(c1)C=CC(C)(C)O3)CC2=O [LESPEFLORIN A3]	Non-toxic	1.5 µM	
COc1cc(O)ccc1[C@@H]1CC(=O)c2c(O)cc3c(c2O1)C=CC(C)(C)O3 [LESPEFLORIN A4]	Non-toxic	4.93 µM	

Compound	Activity [1]	IC50 ([2]; Homo sapiens, NHEM, 72 h)	IC50 ([2]; nhem)
CC(C)=CCc1cc([C@H]2Oc3cc(O)c(CC=C(C)C)cc3C(=O)[C@@H]2O)ccc1O [LESPEFLORIN B1]	Non-toxic	2.87 µM	
CC(C)=CCc1cc2c(c(CC=C(C)C)c1O)O[C@H](c1ccc(O)cc1)[C@@H](O)C2=O [LESPEFLORIN B2]	Non-toxic	2.19 µM	
CC(C)=CCc1cc([C@H]2Oc3c(cc(CC=C(C)C)c(O)c3CC=C(C)C)C(=O)[C@@H]2O)ccc1O [LESPEFLORIN B3]	Non-toxic	0.68 µM	
CC(C)=CCc1cc([C@H]2Oc3c(CC=C(C)C)c(O)c(CC=C(C)C)c(O)c3C(=O)[C@@H]2O)ccc1O [LESPEFLORIN B4]	Non-toxic	1.23 µM	
CC(C)=CCc1cc(C(=O)[C@@H](O)Cc2ccc(O)cc2)c(O)cc1O [LESPEFLORIN C1]	Non-toxic	> 146 µM	
COc1ccc(C[C@H](O)C(=O)c2cc(CC=C(C)C)c(O)cc2O)cc1 [LESPEFLORIN C2]	Non-toxic	28.1 µM	
COc1cc(O)c(CC=C(C)C)cc1C(=O)[C@@H](O)Cc1ccc(O)cc1 [LESPEFLORIN C3]	Non-toxic	1.68 µM	
COc1ccc(C[C@H](O)C(=O)c2cc(CC=C(C)C)c(O)cc2OC)cc1 [LESPEFLORIN C4]	Non-toxic	> 135 µM	
CC(C)=CCc1cc(C(=O)[C@@H](O)Cc2ccc(O)cc2)c(O)c(C)c1O [LESPEFLORIN C5]	Non-toxic	> 135 µM	
CC(C)=CCc1cc(C(=O)[C@@H](O)Cc2ccc(O)cc2)c(O)c(CC=C(C)C)c1O [LESPEFLORIN C6]	Non-toxic	22 µM	
COc1cc2c(cc1C(=O)[C@@H](O)Cc1ccc(O)cc1)C=CC(C)(C)O2 [LESPEFLORIN C7]	Non-toxic	3.78 µM	
COc1c([C@@H]2COc3c(ccc(O)c3CC=C(C)C)C2=O)ccc(O)c1CC=C(C)C [LESPEFLORIN D1]	Non-toxic	1.47 µM	
COc1c(O)ccc2c1OCC(c1ccc(O)c(OC)c1OC)=C2 [LESPEFLORIN E1]	Non-toxic	4.29 µM	
COc1c(O)ccc(-c2cc3ccc(O)c(OC)c3o2)c1OC [LESPEFLORIN F1]	Non-toxic	10.8 µM	
COc1cc2c(CO)c(-c3ccc(O)cc3O)oc2c(CC=C(C)C)c1O [LESPEFLORIN F2]	Non-toxic	8.27 µM	
COc1cc2c(cc1O)O[C@H]1c3ccc(O)c(CC=C(C)C)c3OC[C@@H]21 [LESPEFLORIN G1]	Non-toxic	3.73 µM	
COc1c(O)cc2c(c1CC=C(C)C)O[C@H]1c3cc(CC=C(C)C)c(O)cc3OC[C@@H]21 [LESPEFLORIN G2]	Non-toxic	2.07 µM	
COc1c(O)cc2c(c1CC=C(C)C)O[C@H]1c3c(cc(O)c(CC=C(C)C)c3OC)OC[C@@H]21 [LESPEFLORIN G3]	Non-toxic	2.03 µM	
CC(C)=CCc1cc2c(cc1O)OC[C@H]1c3cc(C)c(O)c(CC=C(C)C)c3O[C@@H]21 [LESPEFLORIN G4]	Non-toxic	3.24 µM	

Compound	Activity [1]	IC50 ([2]; Homo sapiens, NHEM, 72 h)	IC50 ([2]; nhem)
CC(C)=CCc1c(O)c(C)cc2c1O[C@H]1c3ccc(O)c(CC=C(C)C)c3OC[C@@H]21 [LESPEFLORIN G5]	Non-toxic	1.52 µM	
COc1c(C)cc2c(c1CC=C(C)C)O[C@H]1c3ccc(O)cc3OC[C@@H]21 [LESPEFLORIN G6]	Non-toxic	6.16 µM	
COc1cc2c(c(CC=C(C)C)c1O)O[C@H]1c3ccc(O)cc3OC[C@@H]21 [LESPEFLORIN G7]	Non-toxic	6.02 µM	
COc1ccc2c(c1)OC[C@H]1c3cc(O)c(OC)c(CC=C(C)C)c3O[C@@H]21 [LESPEFLORIN G8]	Non-toxic	1.63 µM	
COc1ccc2c(c1)OC[C@H]1c3cc(OC)c(O)c(CC=C(C)C)c3O[C@@H]21 [LESPEFLORIN G9]	Non-toxic	8.38 µM	
CC(C)=CCc1c(O)c(C)cc2c1O[C@H]1c3ccc(O)cc3OC[C@@H]21 [LESPEFLORIN G10]	Non-toxic	1.44 µM	
CC(C)=CCc1cc2c(cc1O)OC[C@H]1c3cc(O)c4c(c3O[C@@H]21)C=CC(C)(C)O4 [LESPEFLORIN G11]	Non-toxic	2.9 µM	
COc1ccc2c(c1)OC[C@H]1c3cc(O)c4c(c3O[C@@H]21)C=CC(C)(C)O4 [LESPEFLORIN G12]	Non-toxic	8.34 µM	
COc1ccc2c(c1)OCc1c-2oc2c(CC=C(C)C)c(O)c(O)cc12 [LESPEFLORIN H1]	Non-toxic	27 µM	
COc1ccc2c(c1)OCc1c-2oc2c3c(c(O)cc12)OC(C)(C)C=C3 [LESPEFLORIN H2]	Non-toxic	1.48 µM	
CC(C)=CCc1cc2c(cc1O)oc(=O)c1c3cc(O)c(O)cc3oc21 [LESPEFLORIN I1]	Non-toxic	3.21 µM	
CC(C)=CCc1cc2c(cc1O)oc(=O)c1c3cc(O)c(O)c(CC=C(C)C)c3oc21 [LESPEFLORIN I2]	Non-toxic	28.3 µM	
COc1ccc2c(c1)oc(=O)c1c3cc(O)c(O)c(CC=C(C)C)c3oc21 [LESPEFLORIN I3]	Non-toxic	27.3 µM	
CC(C)=CCc1cc(-c2oc3c(CC=C(C)C)c(O)c(O)cc3c2C(=O)c2cc3c(c(CC=C(C)C)c2O)O[C@H]2c4ccc(O)c(CC=C(C)C)c4OC[C@@H]32)c(O)cc1O [LESPEFLORIN J1]	Non-toxic	39.6 µM	
COc1ccc(-c2oc3c(CC=C(C)C)c(O)c(O)cc3c2C(=O)c2cc3c(c(CC=C(C)C)c2O)O[C@H]2c4ccc(O)c(CC=C(C)C)c4OC[C@@H]32)c(O)c1 [LESPEFLORIN J2]	Non-toxic	> 52.8 µM	
CC(C)=CCc1cc(-c2oc3c(CC=C(C)C)c(O)c(O)cc3c2C(=O)c2cc3c(c(CC=C(C)C)c2O)O[C@H]2c4cc(CC=C(C)C)c(O)cc4OC[C@@H]32)c(O)cc1O [LESPEFLORIN J3]	Non-toxic	37.7 µM	
COc1ccc(-c2oc3c(CC=C(C)C)c(O)c(O)cc3c2C(=O)c2cc3c(c(CC=C(C)C)c2O)O[C@H]2c4cc(CC=C(C)C)c(O)cc4OC[C@@H]32)c(O)c1 [LESPEFLORIN J4]	Non-toxic	> 52.8 µM	
CC(C)=CCc1cc([C@@H]2CC(=O)c3c(cc(O)c(CC=C(C)C)c3O)O2)ccc1O [MACARANGAFLAVANONE B]	Non-toxic	2.59 µM	
CC(C)=CCc1cc([C@@H]2CC(=O)c3cc(CC=C(C)C)c(O)c(CC=C(C)C)c3O2)ccc1O [PROSTRATOL]	Non-toxic	0.98 µM	
